Measured values published in paper PMC5626781, “A Potent Tartrate Resistant Acid Phosphatase Inhibitor to Study the Function of TRAP in Alveolar Macrophages” (Scientific Reports, 2017).

Tests used:
RAW264.7 macrophages [1] = test: Transwell migration, collagen-coated membrane; assay type: cell-based, mouse; conditions: AubipyOMe 80 nM, with or without RANKL 200 ng/ml
Procedure: Migration of RAW264.7 macrophages was assessed using a transwell-culturing system with inserts (Sigma-Aldrich) coated with osteopontin (10 μg/ml, R&D). Bovine collagen-coated inserts (10 μg/ml, Advanced Biometrix, Carlsbad, USA) were used as matrix control. Cells were incubated with or without RANKL (200 ng/ml) for 72 hours to induce TRAP activity or not[75], in the presence or absence of AubipyOMe (80 nM) in quadruplicate. The previously described TRAP inhibitor 5-PNA (100 μM) was used as selective positive control for TRAP inhibition[15],[23]. The number of cells migrated to the lower well, including dead cells, was calculated relative to control cells and individual experiments were done at least six times. […]
(§1) Transwell experiment to assess macrophage migration
(§2) Migration of RAW264.7 macrophages was assessed using a transwell-culturing system with inserts (Sigma-Aldrich) coated with osteopontin (10 µg/ml, R&D). Bovine collagen-coated inserts (Advanced Biometrix, Carlsbad, USA) were used as a matrix control. […] The number of cells migrated to the lower well, including dead cells, was calculated relative to control cells and individual experiments were done at least six times. […]

RAW264.7 macrophages [2] = test: Live cell imaging of macrophage migration on osteopontin-coated wells; assay type: cell-based, mouse; conditions: AubipyOMe 80 nM
Procedure: Briefly, RAW264.7 macrophages were plated on osteopontin-coated (10 μg/ml, R&D) Lab-tek chamber slides (Nunc, Hatfield, USA). Cells were incubated with or without RANKL (200 ng/ml) for 48 hours to induce TRAP activity or not[75], followed by labeling with carboxyfluorescein diacetate succinimidyl ester (CFSE, Invitrogen, Life Technologies Europe BV, Bleiswijk, The Netherlands) to visualize cells for live cell imaging using a confocal microscope (Solamere Nipkow Confocal Live Cell Imaging system, Solamere Technology Group, Salt lake city, USA). Cell movement was tracked overnight in the presence of 1% zymosan solution (Sigma-Aldrich), to stimulate cell movement, and with or without TRAP inhibitor AubipyOMe (80 nM). Pictures were taken every 10 min and were transformed into movies with Image J and Imaris x64 (Bitplane, Zurich, Switzerland) software.
IC50 of four independent experiments was calculated.
as §1, §2

`COc1ccnc(-c2cc(OC)ccn2)c1.F[P-](F)(F)(F)(F)F.[Cl][Au+][Cl]` [AubipyOMe, [Au(4,4′-dimethoxy-2,2′-bipyridine)Cl2][PF6]] was tested, and the “migration through collagen-coated membrane” value (RAW264.7 macrophages [1]) was “no effect”, the “migratory behavior of RANKL-pretreated macrophages, live cell tracking” value (RAW264.7 macrophages [2]; RANKL 200 ng/ml 48 h) was “inhibited this migratory behavior” and the “migratory behavior of control cells, live cell tracking” value (RAW264.7 macrophages [2]; no RANKL) was “did not affect the migratory behavior”.
